From the NIST ThermoML archive (doi:10.1021/acs.jced.7b00466)

Details: for viscosity / speed of sound / mass density: 102 kPa, Liquid; for viscosity: Concentric cylinders viscometry; for speed of sound: Frequency=3 MHz, Sing-around technique in a fixed-path interferometer; for mass density: Vibrating tube method; for surface tension liquid-gas: Pendant drop shape

CCCCCCc1ccccc1 [hexylbenzene]
Details | mass density [kg/m3] | speed of sound [m/s] | surface tension liquid-gas [mN/m] | viscosity [mPa·s]
293.15 K | 857.69 | 1374.7 | – | 1.68
294.1 K | – | – | 29.4 | –
303.15 K | 850.09 | 1337.3 | – | 1.41
313.15 K | 842.49 | 1300.5 | – | 1.2
323.15 K | 834.87 | 1264.3 | – | 1.03
333.15 K | 827.48 | 1228.8 | – | 0.901
343.15 K | 819.5 | – | – | 0.794

CCCCCCCCCCCC [dodecane]
Details | mass density [kg/m3] | speed of sound [m/s] | surface tension liquid-gas [mN/m] | viscosity [mPa·s]
293.15 K | 748.79 | 1297.3 | – | 1.47
293.6 K | – | – | 25 | –
303.15 K | 741.54 | 1259.1 | – | 1.23
313.15 K | 734.25 | 1221.5 | – | 1.05
323.15 K | 726.94 | 1184.4 | – | 0.902
333.15 K | 719.59 | 1148 | – | 0.786
343.15 K | 712.2 | – | – | 0.69

CCCCCCCCCCCCCCCC [hexadecane]
Details | mass density [kg/m3] | speed of sound [m/s] | surface tension liquid-gas [mN/m] | viscosity [mPa·s]
293.15 K | 773.42 | 1356.4 | – | 3.43
294 K | – | – | 27.2 | –
303.15 K | 766.47 | 1319 | – | 2.72
313.15 K | 759.55 | 1282.6 | – | 2.2
323.15 K | 752.63 | 1246.9 | – | 1.82
333.15 K | 745.71 | 1212 | – | 1.54
343.15 K | 738.8 | – | – | 1.31

Cc1ccccc1 [toluene]
Details | surface tension liquid-gas [mN/m]
293 K | 28.6

CCCCc1ccccc1 [butylbenzene]
Details | mass density [kg/m3] | speed of sound [m/s] | surface tension liquid-gas [mN/m] | viscosity [mPa·s]
293.15 K | 860.6 | 1352.8 | – | 1.06
294.4 K | – | – | 28.8 | –
303.15 K | 852.56 | 1314 | – | 0.915
313.15 K | 844.5 | 1275.8 | – | 0.801
323.15 K | 836.41 | 1238.2 | – | 0.708
333.15 K | 828.29 | 1201.4 | – | 0.631
343.15 K | 820.3 | – | – | 0.566

CCCCC1CCCCC1 [butylcyclohexane]
Details | mass density [kg/m3] | speed of sound [m/s] | surface tension liquid-gas [mN/m] | viscosity [mPa·s]
293.15 K | 799.33 | 1327.7 | – | 1.31
294.5 K | – | – | 26.6 | –
303.15 K | 791.82 | 1287.9 | – | 1.11
313.15 K | 784.28 | 1248.7 | – | 0.961
323.15 K | 776.7 | 1210.3 | – | 0.837
333.15 K | 769.09 | 1172.6 | – | 0.736
343.15 K | 761.4 | – | – | 0.653
